Results as given in patent US20080226605A1, “Methods and Compositions Facilitating Entry of Compounds Into Cells” (priority 2005, published 2008).

What was measured:
Type in all cases: cell-based, Human
DU145 cells [1] = assay: Cellular uptake of fluorescein-labeled oligonucleotide (F-TFO), flow cytometry; details: F-TFO 125 nM; for percentage of fluorescein-positive cells: neomycin 5 μM where present
Description: (§1) Cell culture. Human prostate cancer cells DU145 were grown in RPMI 1640 medium, supplemented with 10% heat-inactivated fetal bovine serum (Life Technologies) under standard conditions (Carbone et al., Nucleic Acids Res. 2003, 31, 833-843; Carbone et al., Nucleic Acids Res 2004, 32, 4358-4367).
Oligonucleotides and other reagents. The fluorescein-conjugated phosphorothioate oligonucleotide (F-TFO) was purchased from Sigma. The oligonucleotide was purified by high-performance liquid chromatography (HPLC). The sequence of the F-TFO, which is identical to the Ets2-TFO, has been published previously (Carbone et al., Nucleic Acids Res. 2003, 31, 833-843). Stock solutions of oligonucleotides were made in sterile water. Oligonucleotide concentrations were determined with a spectrophotometer using appropriate nucleotide extinction coefficients. DOTAP (1,2-dioleoyl-3-trimethyl-ammonium-propane) was purchased from Roche (Indianapolis, Ind.). Neomycin was purchased from Sigma, and used as described previously (Arya et al., J. Am. Chem. Soc. 2003, 125, 3733-3744).
Cellular uptake of oligonucleotides. Uptake of F-TFO and dauno-GT11 was examined 24 hours after transfection of DU145 cells (1.5×10^5 cells/well in 6-well plates) with DOTAP with or without the addition of neomycin as described above. Concentration of F-TFO was 125 nM, corresponding to about 1 μg of DNA/well. After 24 hours, cells were washed and analyzed using a FACSCalibur as described above.
Neomycin positively affected transfection efficiency of plasmid DNA mediated by DOTAP. This effect could be mediated by an increase in intracellular uptake and/or by an enhanced release of DNA from lipid complex into the cytoplasm. […] For the tests shown in FIG. 3, a phosporothioate oligonucleotide directed to the Ets2 gene promoter (Ets2-TFO) was conjugated at the 5′ end with fluorescein (Carbone et al., Nucleic Acids Res. 2003, 31, 833). Cells were transfected with the fluorescein labeled TFO (F-TFO) for 6 hours and then incubated for 24 hours in fresh medium before the analysis by flow cytometry. At the concentration used in the test, only about 7% of cells were fluorescein-positive when transfected with DOTAP alone. The percentage of fluorescein-positive cells increased to about 50% when the oligonucleotide was delivered using the combination of DOTAP and neomycin. Therefore, neomycin enhanced uptake of the F-TFO by approximately 7-fold.

DU145 cells [2] = assay: Luciferase reporter assay (transfection of reporter plasmids); details: neomycin added to the medium after the transfection
Description: as §1
Reporter plasmids. The reporter plasmid pGL3-Ets2 containing the firefly luciferase gene under control of Ets2 promoter has been previously described (Carbone et al., Nucleic Acids Res 2004, 32, 4358-4367). The pRL-SV40 reporter plasmid was purchased from Promega. The pEGFP plasmid was obtained from Clontech.
Luciferase reporter assay. DU145 cells were plated in 48-well plates at a density of 1.5×10^4 cells/well. After 24 hours, cells were transfected with DOTAP-DNA complexes as previously described (Carbone et al., Nucleic Acids Res. 2003, 31, 833-843). […] Mixtures of DNA-DOTAP and DNA-DOTAP-neomycin were allowed to sit at room temperature for 15 minutes for complex formation. […] Luciferase activity was measured with the Luciferase assay system from Promega.
The effects of neomycin in combination with the cationic lipid preparation DOTAP on the uptake of luciferase reporter plasmids was determined. […] The efficiency of transfection as assessed by the luciferase assay increased as the concentration of neomycin increased from 0.5 to 5 μM (FIG. 1A). […]

DU145 cells [3] = assay: EGFP reporter uptake (pEGFP transfection, flow cytometry)
Description: as §1
EGFP reporter uptake. DU145 cells were plated in 6-well plates at a density of 1.5×10^5 cells/well, grown overnight and then transfected. Trasfection mixtures contained 4 μg of pEGFP reporter plasmid with or without addition of neomycin and DOTAP at a 1:5 ratio as described above. Cells were incubated with the transfection complexes for 5 hours, then the medium was removed and replaced with fresh medium. After 24 hours, cells were harvested […], recovered by centrifugation, washed once with PBS, and then analyzed using a FACSCalibur (Becton Dickinson). Data were analyzed using Cell Quest software.
The effects of neomycin on transfection efficiency were further examined using another reporter system, a plasmid expressing green fluorescent protein, the pEGFP reporter vector. DU145 cells were transfected with the pEGFP plasmid in the presence of DOTAP, neomycin or both DOTAP and neomycin. After 24 hours, cells were collected and analyzed for EGFP expression by flow cytometry to examine both fluorescence intensity and percentage of EGFP-positive cells. […]

[4] = flow cytometry 24 hours after transfection

| Compound | percentage of fluorescein-positive cells (DU145 cells [1]; [4]) | oligonucleotide uptake (DU145 cells [1]; neomycin alone (5 μM), without DOTAP) | effect on luciferase reporter activity (DU145 cells [2]) | efficiency of DNA uptake (DU145 cells [3]; pEGFP plasmid, neomycin alone (5 μM), without DOTAP) | mean fluorescent intensity (F-TFO) (DU145 cells [1]; [4]) | mean fluorescent intensity (EGFP) (DU145 cells [3]; pEGFP plasmid 4 μg, flow cytometry after 24 hours) |
| --- | --- | --- | --- | --- | --- | --- |
| neomycin | 2.4% | did not affect | No effect | marginally affected |  |  |
| CCCCCCCC/C=C\CCCCCCCC(=O)OCC(C[N+](C)(C)C)OC(=O)CCCCCCC/C=C\CCCCCCCC (stereo not shown) [DOTAP, 1,2-dioleoyl-3-trimethyl-ammonium-propane] | about 7% |  |  |  | 19.4 | 27.8 |
